Source: patent US20230372382A1, “USE OF ADENOSINE DIPHOSPHATE RIBOSE FOR ADJUVANT THERAPY WITH RADIATION AND/OR ANTI-CANCER TREATMENT” (PearlsInMires Co., Ltd., priority 2021, published 2023)

Legend:
[1] = tested on: Brain cancer (U-87MG) cells; experiment: Xenograft model, combination with anti-cancer drug, tumor volume; format: in vivo, BALB/c nude mice; conditions: U-87MG xenograft, Avastin 25 mg/kg intraperitoneal twice a week alone
Experimental: (§1) Brain (U-87MG), lung (H1975), pancreatic (AsPC-1), or liver (Hep G2) cells (1×10^7 cells) were inoculated into 5-week-old BALB/c nude mice on the back flank, respectively. Then, when tumors were grown to a volume of approximately 150 mm^3, the mice were divided into the control group (control), an anti-cancer drug alone treatment group, and a combination treatment group. […] The tumor size was measured every 6 days using a digital caliper, and the results of changes in tumor volume were compared by the group.
Brain cancer (U-87MG) cells (1×10^7) were inoculated into 5-week-old BALB/c nude mice on the back flank, and the mice were divided into three groups: the control group (Control), single intraperitoneal administration of 25 mg/kg of Avastin (ingredient name: bevacizumab), and combination administration of Avastin+10 mg/kg of ADP-ribose. When the tumors were grown to a volume of approximately 150 mm^3, Avastin was administered intraperitoneally twice a week, and ADP-ribose at 10 mg/kg was injected subcutaneously 3 times a week. The tumor size was measured using a digital caliper, and the results of changes in tumor volume were compared by the group.

[2] = tested on: Pancreatic cancer (AsPC-1) cells; experiment: Cell death by combination treatment with anti-cancer drug (MTT); format: cell-based; conditions: Homo sapiens, ASPC1, 24 h; read-out: cancer cells survived (cell viability)
[3] = tested on: Liver cancer (Hep G2) cells; experiment: as above; conditions: Homo sapiens, HepG2, 24 h, read-out: cancer cells survived (cell viability)
[4] = tested on: Liver cancer (Hep G2) cells; experiment: Xenograft model, combination with anti-cancer drug, tumor volume; format: in vivo, BALB/c nude mice; conditions: sorafenib 10 mg/kg oral 5 times a week alone
Experimental: as §1
Liver cancer (Hep G2) cells (1×10^7) were inoculated into 5-week-old BALB/c nude mice on the back flank, and the mice were divided into three groups: the control group (Control), single oral administration of 10 mg/kg of sorafenib, and combination administration of sorafenib+10 mg/kg of ADP-ribose. When the tumors were grown to a volume of approximately 150 mm^3, sorafenib was administered orally 5 times a week, and ADP-ribose at 10 mg/kg was injected subcutaneously 3 times a week. The tumor size was measured using a digital caliper, and the results of changes in tumor volume were compared by the group.

[5] = tested on: Lung cancer (H1975) cells; experiment: as above; format: in vivo, BALB/c nude mice; conditions: osimertinib 1 mg/kg oral twice a week alone
Experimental: as §1
Lung cancer (H1975) cells (1×10^7) were inoculated into 5-week-old BALB/c nude mice on the back flank, and the mice were divided into three groups: the control group (Control), single oral administration of 1 mg/kg of osimertinib, and combination administration of osimertinib+10 mg/kg of ADP-ribose. When the tumors were grown to a volume of approximately 150 mm^3, osimertinib was administered orally twice a week, and ADP-ribose at 10 mg/kg was injected subcutaneously 3 times a week. The tumor size was measured using a digital caliper, and the results of changes in tumor volume were compared by the group.

[6] = tested on: Lung cancer (H1975) cells; experiment: Cell death by combination treatment with anti-cancer drug (MTT); format: cell-based; conditions: Homo sapiens, NCI-H1975; H1975, osimertinib 1 nM alone, 24 hours; read-out: cancer cells survived (cell viability)
[7] = tested on: Colon cancer (HCT116) cells; experiment: as above; format: cell-based; conditions: Homo sapiens, HCT-116; HCT116, 5-FU 10 μM alone, 24 hours; read-out: cancer cells survived (cell viability)

For “bevacizumab: anti-VEGF monoclonal antibody; Avastin (ingredient name: bevacizumab) [reference compound]”, the “final tumor volume lower than that of the control group” value (shortened to “final tumor volume lower than that”) [1] was “about 37%” and the final tumor volume ([1]; control about 2527.1) was “about 1598.9 mm^3”.
Nc1ccn([C@@H]2O[C@H](CO)[C@@H](O)C2(F)F)c(=O)n1 [gemcitabine, reference compound] was tested, and the viability at 1 µM [2] was ~54%.
With CNC(=O)c1cc(Oc2ccc(NC(=O)Nc3ccc(Cl)c(C(F)(F)F)c3)cc2)ccn1 [sorafenib, reference compound] the viability at 1 µM [3] was ~49%, the “final tumor volume lower than that” value [4] was “about 20%” and the final tumor volume ([4]; control about 2322.4) was “about 1849.8 mm^3”.
With C=CC(=O)Nc1cc(Nc2nccc(-c3cn(C)c4ccccc34)n2)c(OC)cc1N(C)CCN(C)C [osimertinib, reference compound] the “final tumor volume lower than that” value [5] was “about 17%”, the final tumor volume ([5]; control about 2265.5) was “about 1881.9 mm^3” and the viability at 0.001 µM [6] was ~50%.
With O=c1[nH]cc(F)c(=O)[nH]1 [5-FU, 5-fluorouracil, reference compound] the viability at 10 µM [7] was ~51%.
